# pEC50: −log10 of the molar value. Numbered stars: 1 amine (or outer) side, 2 acyl side, 3 side chain; on linkers, the order of the positions; unused ones are H or OH. Square brackets hold non-standard residues; d marks the D form. Side chains are listed from the residue outwards. Peptide text beside a SMILES is read from it. * marks the point of attachment. γGlu = O=C(O)[C@H](CCC(=O)[*:2])N[*:1]; Palmitoyl = CCCCCCCCCCCCCCCC(=O)*; βAla = NCCC(=O)O
# Columns and labels:
# GIP receptor [1] = target: T1, GIP receptor (Homo sapiens, UniProt P48546); details: relative to native GIP; cited from earlier work
# T1 construct: expressed in transfected cells; host or cells: HEK293
# T1 sequence (P48546 22-466): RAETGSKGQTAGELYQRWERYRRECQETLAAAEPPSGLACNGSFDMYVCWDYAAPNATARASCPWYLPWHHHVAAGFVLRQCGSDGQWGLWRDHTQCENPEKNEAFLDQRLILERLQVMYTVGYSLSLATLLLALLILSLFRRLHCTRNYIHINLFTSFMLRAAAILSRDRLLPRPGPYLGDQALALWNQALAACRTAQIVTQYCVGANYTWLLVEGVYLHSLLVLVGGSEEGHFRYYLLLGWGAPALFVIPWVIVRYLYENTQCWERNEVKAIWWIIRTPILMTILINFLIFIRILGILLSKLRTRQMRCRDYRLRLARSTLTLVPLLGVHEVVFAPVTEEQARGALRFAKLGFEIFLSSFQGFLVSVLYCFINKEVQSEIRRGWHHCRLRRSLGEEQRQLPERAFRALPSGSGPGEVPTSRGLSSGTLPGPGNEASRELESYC
# GIP receptor [2] = target: T1, GIP receptor; experiment: cAMP induction, firefly luciferase reporter assay in HEK293 cells co-transfected with receptor; assay type: cell-based
# Procedure: (§1) The ability of glucagon analogs to induce cAMP was measured in a firefly luciferase-based reporter assay. […] At the end of the incubation 100 microliters of LucLite luminescence substrate reagent (Perkin-Elmer, Wellesley, Mass.) were added to each well. […] Effective 50% concentrations were calculated by using Origin software (OriginLab, Northampton, Mass.
# glucagon receptor = target: T2, glucagon receptor (Homo sapiens, UniProt P47871); experiment: as above; assay type: cell-based
# T2 construct: expressed in transfected cells; host or cells: HEK293
# T2 sequence (P47871 26-477): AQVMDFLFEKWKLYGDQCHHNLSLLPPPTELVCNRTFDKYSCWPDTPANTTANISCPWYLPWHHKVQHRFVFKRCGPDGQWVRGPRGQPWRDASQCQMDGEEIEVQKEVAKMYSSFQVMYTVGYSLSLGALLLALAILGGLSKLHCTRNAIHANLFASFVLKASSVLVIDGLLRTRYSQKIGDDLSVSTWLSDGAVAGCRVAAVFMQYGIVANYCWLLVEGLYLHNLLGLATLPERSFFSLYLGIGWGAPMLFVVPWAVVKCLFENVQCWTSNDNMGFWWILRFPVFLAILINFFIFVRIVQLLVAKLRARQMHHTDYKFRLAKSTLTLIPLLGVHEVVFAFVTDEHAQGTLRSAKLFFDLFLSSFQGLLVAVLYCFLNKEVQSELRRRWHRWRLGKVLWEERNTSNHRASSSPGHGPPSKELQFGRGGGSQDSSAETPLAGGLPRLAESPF
# Procedure: as §1
# GLP-1 receptor = target: T3, GLP-1 receptor (Homo sapiens, UniProt P43220); experiment: as above; assay type: cell-based
# T3 construct: expressed in transfected cells; host or cells: HEK293
# T3 sequence (P43220 24-463): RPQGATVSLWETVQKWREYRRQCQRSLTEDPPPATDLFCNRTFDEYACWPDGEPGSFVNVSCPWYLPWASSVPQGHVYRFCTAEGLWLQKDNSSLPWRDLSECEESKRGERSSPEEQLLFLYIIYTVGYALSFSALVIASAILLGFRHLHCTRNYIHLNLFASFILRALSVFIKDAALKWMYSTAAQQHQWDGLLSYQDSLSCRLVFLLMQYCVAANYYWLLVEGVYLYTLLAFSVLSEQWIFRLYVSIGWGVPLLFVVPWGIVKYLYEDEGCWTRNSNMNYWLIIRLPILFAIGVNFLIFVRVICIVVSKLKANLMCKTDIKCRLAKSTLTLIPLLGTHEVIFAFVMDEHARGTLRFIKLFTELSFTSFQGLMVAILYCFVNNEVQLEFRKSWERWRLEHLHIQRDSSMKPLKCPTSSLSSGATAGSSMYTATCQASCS
# Procedure: as §1
# [3] = Table 1, analogs of SEQ ID NO: 37
# [4] = Table 2, analogs of SEQ ID NO: 10
Compound,activity of native GIP at the GIP receptor (GIP receptor [1]) [%],pEC50 (GIP receptor [2]; [3]),pEC50 (glucagon receptor; [3]),pEC50 (GLP-1 receptor; [3]),pEC50 (GIP receptor [2]; [4]),pEC50 (glucagon receptor; [4]),pEC50 (GLP-1 receptor; [4])
Native glucagon: native human glucagon (SEQ ID NO: 1),~0,–,–,–,–,–,–
CCCCCCCCCCCCCCCC(=O)N[C@@H](CCC(=O)NCCCC[C@H](NC(=O)[C@H](CC(=O)O)NC(=O)[C@H](CO)NC(=O)[C@@H](NC(=O)[C@H](Cc1ccccc1)NC(=O)[C@@H](NC(=O)CNC(=O)[C@H](CCC(N)=O)NC(=O)CNC(=O)[C@H](CCC(N)=O)NC(C)=O)[C@@H](C)O)[C@@H](C)O)C(=O)N[C@@H](CO)C(=O)N[C@@H](CCCCN)C(=O)N[C@@H](Cc1ccc(O)cc1)C(=O)N[C@@H](CC(C)C)C(=O)N[C@@H](CC(=O)O)C(=O)N[C@@H](CCC(=O)O)C(=O)N[C@@H](CCCNC(=N)N)C(=O)N[C@@H](C)C(=O)N[C@@H](C)C(=O)N[C@@H](CCC(N)=O)C(=O)N[C@@H](CC(=O)O)C(=O)N[C@@H](Cc1ccccc1)C(=O)N[C@H](C(=O)N[C@@H](CCC(N)=O)C(=O)N[C@@H](Cc1c[nH]c2ccccc12)C(=O)N[C@@H](CC(C)C)C(=O)N[C@@H](CC(C)C)C(=O)N[C@@H](CCC(=O)O)C(=O)NCC(=O)NCC(=O)N1CCC[C@H]1C(=O)N[C@@H](CO)C(=O)N[C@@H](CO)C(=O)NCC(=O)N[C@@H](C)C(=O)N1CCC[C@H]1C(=O)N1CCC[C@H]1C(=O)N1CCC[C@H]1C(=O)N[C@@H](CO)C(N)=O)C(C)C)C(=O)O [compound 34] (Ac-QGQGTFTSDK([γGlu-Palmitoyl])SKYLDERAAQDFVQWLLEGGPSSGAPPPS-NH2),–,9.36,9.79,9.21,–,–,–
CCCCCCCCCCCCCCCC(=O)N[C@@H](CCC(=O)NCCCC[C@H](NC(=O)[C@H](CC(=O)O)NC(=O)[C@H](CO)NC(=O)[C@@H](NC(=O)[C@H](Cc1ccccc1)NC(=O)[C@@H](NC(=O)CNC(=O)[C@H](CCC(N)=O)NC(=O)CCNC(=O)[C@@H](N)Cc1c[nH]cn1)[C@@H](C)O)[C@@H](C)O)C(=O)N[C@@H](CO)C(=O)N[C@@H](CCCCN)C(=O)N[C@@H](Cc1ccc(O)cc1)C(=O)N[C@@H](CC(C)C)C(=O)N[C@@H](CC(=O)O)C(=O)N[C@@H](CCC(=O)O)C(=O)N[C@@H](CCCNC(=N)N)C(=O)N[C@@H](C)C(=O)N[C@@H](C)C(=O)N[C@@H](CCC(N)=O)C(=O)N[C@@H](CC(=O)O)C(=O)N[C@@H](Cc1ccccc1)C(=O)N[C@H](C(=O)N[C@@H](CCC(N)=O)C(=O)N[C@@H](Cc1c[nH]c2ccccc12)C(=O)N[C@@H](CC(C)C)C(=O)N[C@@H](CC(C)C)C(=O)N[C@@H](CCC(=O)O)C(=O)NCC(=O)NCC(=O)N1CCC[C@H]1C(=O)N[C@@H](CO)C(=O)N[C@@H](CO)C(=O)NCC(=O)N[C@@H](C)C(=O)N1CCC[C@H]1C(=O)N1CCC[C@H]1C(=O)N1CCC[C@H]1C(=O)N[C@@H](CO)C(N)=O)C(C)C)C(=O)O [compound 26] (H-H[βAla]QGTFTSDK([γGlu-Palmitoyl])SKYLDERAAQDFVQWLLEGGPSSGAPPPS-NH2),–,10.15,10.02,11.70,–,–,–
CCCCCCCCCCCCCCCC(=O)N[C@@H](CCC(=O)NCCCC[C@H](NC(=O)[C@H](CC(=O)O)NC(=O)[C@H](CO)NC(=O)[C@@H](NC(=O)[C@H](Cc1ccccc1)NC(=O)[C@@H](NC(=O)CNC(=O)[C@H](CCC(N)=O)NC(=O)[C@H](C)NC(=O)[C@H](Cc1cccs1)NC(C)=O)[C@@H](C)O)[C@@H](C)O)C(=O)N[C@@H](CO)C(=O)N[C@@H](CCCCN)C(=O)N[C@@H](Cc1ccc(O)cc1)C(=O)N[C@@H](CC(C)C)C(=O)N[C@@H](CC(=O)O)C(=O)N[C@@H](CCC(=O)O)C(=O)N[C@@H](CCCNC(=N)N)C(=O)N[C@@H](C)C(=O)N[C@@H](C)C(=O)N[C@@H](CCC(N)=O)C(=O)N[C@@H](CC(=O)O)C(=O)N[C@@H](Cc1ccccc1)C(=O)N[C@H](C(=O)N[C@@H](CCC(N)=O)C(=O)N[C@@H](Cc1c[nH]c2ccccc12)C(=O)N[C@@H](CC(C)C)C(=O)N[C@@H](CC(C)C)C(=O)N[C@@H](CCC(=O)O)C(=O)NCC(=O)NCC(=O)N1CCC[C@H]1C(=O)N[C@@H](CO)C(=O)N[C@@H](CO)C(=O)NCC(=O)N[C@@H](C)C(=O)N1CCC[C@H]1C(=O)N1CCC[C@H]1C(=O)N1CCC[C@H]1C(=O)N[C@@H](CO)C(N)=O)C(C)C)C(=O)O [compound 21],–,10.40,11.22,10.59,–,–,–
CCCCCCCCCCCCCCCC(=O)N[C@@H](CCC(=O)NCCCC[C@H](NC(=O)[C@H](CC(=O)O)NC(=O)[C@H](CO)NC(=O)[C@@H](NC(=O)[C@H](Cc1ccccc1)NC(=O)[C@@H](NC(=O)CNC(=O)[C@H](CCC(N)=O)NC(=O)[C@H](C)NC(=O)[C@H](Cc1ccc(O)cc1)NC(C)=O)[C@@H](C)O)[C@@H](C)O)C(=O)N[C@@H](CO)C(=O)N[C@@H](CCCCN)C(=O)N[C@@H](Cc1ccc(O)cc1)C(=O)N[C@@H](CC(C)C)C(=O)N[C@@H](CC(=O)O)C(=O)N[C@@H](CCC(=O)O)C(=O)N[C@@H](CCCNC(=N)N)C(=O)N[C@@H](C)C(=O)N[C@@H](C)C(=O)N[C@@H](CCC(N)=O)C(=O)N[C@@H](CC(=O)O)C(=O)N[C@@H](Cc1ccccc1)C(=O)N[C@H](C(=O)N[C@@H](CCC(N)=O)C(=O)N[C@@H](Cc1c[nH]c2ccccc12)C(=O)N[C@@H](CC(C)C)C(=O)N[C@@H](CC(C)C)C(=O)N[C@@H](CCC(=O)O)C(=O)NCC(=O)NCC(=O)N1CCC[C@H]1C(=O)N[C@@H](CO)C(=O)N[C@@H](CO)C(=O)NCC(=O)N[C@@H](C)C(=O)N1CCC[C@H]1C(=O)N1CCC[C@H]1C(=O)N1CCC[C@H]1C(=O)N[C@@H](CO)C(N)=O)C(C)C)C(=O)O [compound 155] (Ac-YAQGTFTSDK([γGlu-Palmitoyl])SKYLDERAAQDFVQWLLEGGPSSGAPPPS-NH2),–,–,–,–,10.43,11.15,10.22
